These results are taken from EP0384661A1, “Antialgal compositions comprising diphenylethers” (ROHM AND HAAS COMPANY, priority 1989, dated 1990).

Values after ≈ are worked out from the molar mass of the structure shown. Structures can show the parent of a compound that is named as a salt.

The test system of test [1] is Mixed Cooling Tower Culture. The test can be described thus: MIC microtiter plate assay. The class given is cell-based, mixed culture of algae. To be noted: growth/no-growth after 14 or 21 days, 25°C. The procedure: (§1) Efficacy studies were conducted on a variety of microorganisms with oxyfluorfen. Minimum Inhibitory Concentration (MIC) studies were conducted using microtiter plate assays. In this method, a wide range of concentrations was tested by preparing two-fold serial dilutions of the compound in 96-well plastic microtiter plates. All liquid media transfers were performed with calibrated single or multichannel digital pipetters. Stock solutions of compounds were prepared in appropriate solvents and dispensed to the growth medium. All subsequent dilutions in plates were made using the desired growth medium. The total volume of liquid in each well was 100 ul. The pure cultures used in this study were obtained from the Culture Collection of Algae at the University of Texas at Austin (UTEX). The mixed culture of algae was obtained from a cooling tower biofilm and maintained in liquid medium; microorganisms used as inocula were cultured in shaken liquid culture (50 ml of Bristol's medium, pH 7.0, 25°C); Journal of Phycology, 23s: 1-47, 1987) for one week or as needed to attain a desired cell mass. The cultures were then inoculated into the microtiter plates using a 96-prong multiple inoculator (5 µl inoculum); each well received a standard suspension of biomass (5% inoculum). Plates were incubated at 25°C under constant illumination (500 ft candles). The extent of growth was determined under low magnification with the aid of a microtiter plate reader. The growth in each cell was monitored periodically and growth/no-growth was recorded after 14 or 21 days. […] Following the evaluation procedure of Example 3, compounds according to the following structural formula, with X and Y substituents according to Table 4A, were evaluated with the results shown in Table 4B. [drawing 4]

The test system of a further test is Anabaena flos-aquae. The experiment in a line: MIC microtiter plate assay. It counts as cell-based. Conditions: Dolichospermum flos-aquae; growth/no-growth after 14 or 21 days, 25°C. The procedure:
as §1

Test [2] deals with 10 differents types of algae. To be noted: all levels tested; 10 types of algae; cited from earlier work.

The MIC is the smallest concentration in the dilution series that meets the test's criterion for growth inhibition. Low readings indicate a more susceptible organism, high ones a less susceptible organism. `CCOC(=O)COC(=O)c1cc(Oc2ccc(C(F)(F)F)cc2Cl)ccc1[N+](=O)[O-]` [4F comparative] registered an MIC in test [1] of 1 mg/L (≈ 2.23 µM).

In the case of `Oc1cccc(Oc2ccc(C(F)(F)F)cc2Cl)c1` [4A comparative], the MIC was 3.1 mg/L (≈ 10.7 µM) against Anabaena flos-aquae and 1.6 mg/L (≈ 5.54 µM) in test [1].

For the compound `O=C(O)c1cc(Oc2ccc(C(F)(F)F)cc2Cl)ccc1[N+](=O)[O-]` [acifluorfen, 2-chloro-4-trifluoromethylphenyl-3′-carboxy-4′-nitrophenylether, sodium salt], the effectiveness on algae entry in test [2] is given as “ineffective at all levels tested”.

In the case of `CC(=O)Oc1cccc(Oc2ccc(C(F)(F)F)cc2Cl)c1` [4B comparative], the minimum inhibitory concentration (MIC) in the test with Anabaena flos-aquae is 16 mg/L (≈ 48.4 µM); in test [1] it was 8 mg/L (≈ 24.2 µM).

Compound `CCOC(=O)C(C)Oc1cc(Oc2ccc(C(F)(F)F)cc2Cl)ccc1[N+](=O)[O-]` (stereo not shown) [Compound 4G] registered a minimal inhibitory concentration (MIC) in test [1] of 0.25 mg/L (≈ 0.576 µM).

With `CC(=O)Oc1cc(Oc2ccc(C(F)(F)F)cc2Cl)ccc1[N+](=O)[O-]` [4C comparative], the MIC in the test with Anabaena flos-aquae was 12.5 mg/L (≈ 33.3 µM); in test [1] it was 0.25 mg/L (≈ 0.665 µM).

With `O=C(O)c1cc(Oc2ccc(C(F)(F)F)cc2Cl)ccc1[N+](=O)[O-]` [4E comparative], the MIC in the test with Anabaena flos-aquae was above 50 mg/L; in test [1], 12.5 mg/L (≈ 34.6 µM).

For `O=[N+]([O-])c1ccc(Oc2ccc(C(F)(F)F)cc2Cl)cc1O` [4D comparative], the MIC in the test on Anabaena flos-aquae came out at 12.5 mg/L (≈ 37.5 µM); in test [1] it was 0.06 mg/L (≈ 0.18 µM).
